The results in this text go back to US20090048229A1, “Methods for promoting wakefulness” (priority 2007, published 2009).

What is called inhibition is the relative decrease from the control value, in per cent. One may read the IC50 as the concentration that inhibits the measured activity by half.

The test system of series [1] is male CD IGS (Sprague Dawley derived) rats. Nature of the series: Induction of hypothermia after subcutaneous administration. As to conditions: for Induction of hypothermia MED (mg/kg s.c.): hypothermia = fall in temperature of >0.5° C.; for fall in body temperature: subcutaneous administration. The series is classed as in vivo, rat. The text has this:
Cholinergic agonists cause hypothermia through a central mechanism of action (Freedman et al, 1989. Direct measurement of muscarinic agents in the central nervous system of mice using ex vivo binding. Eur. J. Pharmacol. 174:253-260). […] Since a premise of the present invention is that carbomyl esters would liberate the conjugated amine in the CNS only after inhibition of acetylcholinesterase, induction of hypothermia provides a useful correlation with the acetylcholinesterase inhibition detected in vitro and in vivo.
Hypothermia was defined as a fall in temperature of >0.5° C.
Hypothermia is a marker of CNS penetration for ACHE inhibitors.
(§1) If less soluble, the maximum injection volume was 5 mL/kg.
(§2) Baseline temperatures were taken just before injection.

Series [2] has as its target butylryl cholinesterase (Homo sapiens, UniProt P06276). Put plainly: Inhibition of butyrylcholinesterase. The series is classed as biochemical. Conditions: read-out: Inhibition of BuChE (%) 10 μM. As for the experimental part: The inhibition of butylryl cholinesterase was determined using methods known in the art e.g., Alcala Molel M. et al. (2003) Characterization of the anticholinesterase activity of two new tacrin-huperzine A hybrids. Neuropharmacology, 44 (6), 749-755.

Series [3] can be described thus: Dose range for cholinergic effects / max tolerated dose. As to conditions: s.c., rats. The series is classed as in vivo, rat. As for the experimental part: as §1, §2
For series [4], the system named is male Wistar rats. Put plainly: Wake promotion (EEG/EMG sleep-wake, locomotor activity, body temperature). As to conditions: for rebound hypersomnolence: FIG. 3; for duration of wakefulness: administered 5 hours after lights on (CT-5), FIG. 2; for effect on body temperature: FIG. 4; for locomotor hyperactivity / stimulant activity: FIG. 5. The series is classed as in vivo, rat. As for the experimental part:
Test compounds in various dose ranges or vehicle were administered to male Wistar rats 5 hours after lights on (CT-5). EEG, EMG, locomotor activity, drink- and food-related activity, and body temperature were concurrently monitored for 30 hr before and after treatment from rats living in separate isolated recording chambers. Sleep-wake discriminations were carried out using SCORE2004™, proprietary real-time hardware and software technology of Hypnion, Inc. (Lexington, Mass.). Comparisons were made between the reference compounds: d-amphetamine, rivastigmine, modafinil, and the following carbamoyl ester test compounds: […]

For series [5], the target named is BuChE (Homo sapiens, UniProt P06276). Put plainly: In vitro screening assay, BuChE inhibition. The series is classed as biochemical. The text has this:
An in vitro screening assay with various conjugates was completed according to the methods described in Ellman G L et al., Biochem Pharmacol., 7:88-95 (1961) and in Nadarajah B, J. Anal. Toxicol., 16:192-193 (1992), both of which are herein incorporated by reference in their entireties. The assay method was completed according to the following: […]

For series [6], the target named is T1, human recombinant acetylcholinesterase (Homo sapiens, UniProt P22303).
T1 construct: purchased Sigma Chemical Co (St. Louis, Mo.) C1682
T1 sequence (P22303 32-614): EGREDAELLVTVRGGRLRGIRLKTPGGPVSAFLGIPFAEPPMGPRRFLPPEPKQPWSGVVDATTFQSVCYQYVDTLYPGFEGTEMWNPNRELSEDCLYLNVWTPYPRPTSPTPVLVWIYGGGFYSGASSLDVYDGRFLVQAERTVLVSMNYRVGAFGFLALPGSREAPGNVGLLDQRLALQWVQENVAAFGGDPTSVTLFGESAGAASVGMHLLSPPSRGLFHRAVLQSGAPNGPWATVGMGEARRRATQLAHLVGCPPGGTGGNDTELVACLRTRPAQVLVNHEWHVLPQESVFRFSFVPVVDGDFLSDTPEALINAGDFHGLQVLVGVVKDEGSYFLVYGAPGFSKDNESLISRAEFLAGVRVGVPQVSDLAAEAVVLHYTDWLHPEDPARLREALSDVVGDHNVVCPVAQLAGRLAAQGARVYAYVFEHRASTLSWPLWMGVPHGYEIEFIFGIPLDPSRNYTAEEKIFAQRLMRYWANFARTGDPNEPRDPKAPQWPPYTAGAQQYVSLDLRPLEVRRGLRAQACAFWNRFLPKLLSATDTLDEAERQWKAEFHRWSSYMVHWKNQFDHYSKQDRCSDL
Put plainly: biochemical. As to conditions: for IC50: 30 min preincubation, 25° C., read-out: Inhibition of AChE IC50; for inhibition at 10 µM: read-out: Inhibition of AChE (%) 10 μM. As for the experimental part: All reagents employed in this experiment were of analytical grade. Acetylthiocholine iodide and 5,5′-dithiobis-(2-nitro)benzoic acid (DTNB) and human recombinant acetylcholinesterase (C1682) were purchased from Sigma Chemical Co (St. Louis, Mo.).
The enzyme, compound or stigmine and buffer were preincubated for 30 minutes. At the end of the preincubation period, the substrate acetylthiocholine was added. The final assay mixture contained 10 mM Tris-buffer (pH 8), 0.3 mM Acetylthiocholine and 0.33 mM DTNB and 0.08 U/ml enzyme. At least five (5) different concentrations of the compound or stigmine were assayed per IC50 experiment.
Hydrolysis of acetylthiocholine was monitored indirectly by measurement of the formation of the conjugate between thiocholine and DTNB.

For series [7], the system named is total cholinesterase activity in the brain. Nature of the series: Total cholinesterase activity in brain homogenate after i.p. injection. The series is classed as in vivo, rat. As to conditions: brain 3 hours after injection; for Relative ChE Activity: relative to saline treated rats. On the procedure: Animals were decapitated 3 hours after injection and the brains rapidly removed. The brain tissue was diced into small pieces, placed on ice and immediately homogenized with a Polytron PT1200 (Kinematic AG) in 10 ml ice cold Tris with 0.1% Triton-X and protease inhibitors. The protease inhibitors in the extraction buffer were Antipain (10 μM), Aprotinin (5 TIU/mg protein), Bestatin ([…]), Leupeptin (10 μM) and Pepstatin (1 μM). The final dilution of the homogenate in the final assay mixture was 120-fold.
Total cholinesterase activity was determined by a modification of the colorimetric method of Ellmann, et al. (Biochem. Pharmacol., 7:88-95 (1961)), as described above. Hydrolysis of acetylthiocholine was monitored indirectly by measurement of the formation of the conjugate between thiocholine and DTNB. Optical density at 405 nm was recorded during five (5) minutes employing a microplate spectrophotometer (Polarstar, BMG Labtech), and plotted against time. The initial rates were calculated from the slope of the linear portion of the graph.
Cholinesterase activity was normalized for protein content of the homogenate. Relative cholinesterase activity was calculated as the ratio of normalized cholinesterase activity in a rat treated with a control compound or a carbamoyl ester over normalized cholinesterase activity in saline treated rats.

The target in series [8] is AChE (Homo sapiens, UniProt P22303). The series is classed as biochemical.
Chain of AChE (P22303 32-614): as above
Series [9] relates to rats trained to discriminate methamphetamine from saline. Nature of the series: Two-lever drug discrimination in methamphetamine trained rats. As to conditions: 0.32-10 mg/kg p.o.

Where two headings read alike, the source gives them in different places.

Chain of BuChE (P06276 29-602): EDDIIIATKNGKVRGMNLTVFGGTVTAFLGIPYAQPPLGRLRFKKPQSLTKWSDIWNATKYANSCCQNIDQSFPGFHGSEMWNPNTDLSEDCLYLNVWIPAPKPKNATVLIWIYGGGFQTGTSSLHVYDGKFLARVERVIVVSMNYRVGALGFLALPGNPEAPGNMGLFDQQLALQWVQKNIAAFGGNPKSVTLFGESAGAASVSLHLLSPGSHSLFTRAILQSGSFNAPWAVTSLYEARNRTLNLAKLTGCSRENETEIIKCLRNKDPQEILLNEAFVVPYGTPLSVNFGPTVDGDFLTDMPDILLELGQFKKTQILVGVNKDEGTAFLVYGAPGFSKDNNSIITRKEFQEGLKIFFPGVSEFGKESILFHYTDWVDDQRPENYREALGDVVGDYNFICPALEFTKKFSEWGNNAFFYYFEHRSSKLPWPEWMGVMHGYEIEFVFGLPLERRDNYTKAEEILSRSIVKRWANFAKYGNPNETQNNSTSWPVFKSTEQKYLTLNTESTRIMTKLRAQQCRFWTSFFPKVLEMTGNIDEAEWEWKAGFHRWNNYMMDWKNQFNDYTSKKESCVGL
Chain of butylryl cholinesterase (P06276 29-602): as above

With `CCN(C)C(=O)Oc1cccc([C@H](C)N(C)C)c1` [Compound 1, S-rivastigmine, reference compound], in series [1] (s.c., rats), the “Hypothermia MED (mg/kg)” value is listed as “≦0.1 mg/kg”. Further, the “Induction of hypothermia MED (mg/kg s.c.)” value (“Induction of hypothermia MED” below) in [1] (s.c.) is “≦0.1 mg/kg s.c”. In addition, the “fall in body temperature” value in [1] is “dose-related-related fall in body temperature”. For the same compound, in series [2], the inhibition at 10 µM is 100%. The “Max Tolerated Dose” value in series [3] amounted to 10. Besides, in [4], the rebound hypersomnolence result is listed as “rebound hypersomnolence” and the duration of wakefulness entry is given as “increased wakefulness”. Also, in [5], the “BuChEI (%) 1 μM” value is 45% and the “BuChEI (%) 10 μM” value came out at 100%.
For `C[C@H](Cc1ccccc1)N(C)C(=O)Oc1cccc([C@H](C)N(C)C)c1` [Compound 7, S-riva-l-methamphetamine], in [1] (s.c.), the “Induction of hypothermia MED” value was “≦1 mg/kg s.c”. In addition, in series [1], the “fall in body temperature” value is “dose-related-related fall in body temperature”. Besides, the inhibition at 10 µM in series [2] amounted to 17%. Further, in series [6], the IC50 came out at 3.2 µM and the inhibition at 10 µM worked out at 79%. In series [7] (2 mg/kg i.p.), the ChE inhibition is 38% and the “Relative ChE Activity” value is 62%. For the same compound, in [8], the “AChEI (%) 1 μM” value is given as 32% and the “AChEI (%) 10 μM” value was 79%. The “stimulus generalization (selection of methamphetamine lever)” value in [9] is listed as “did not select the methamphetamine lever”. Further, in series [4] (listed as Compound B), the rebound hypersomnolence result is “rebound hypersomnolence was not observed”; the “effect on body temperature” value is on record as “did not cause an increase in body temperature (hyperthermia), but rather caused an opposite reduction in body temperature”; the “locomotor hyperactivity / stimulant activity” value is “did not cause locomotor hyperactivity”; the duration of wakefulness entry is recorded as “unexpectedly long increase in wakefulness that surpassed that seen with the reference compounds tested”. In [4] (listed as compound B), the rebound hypersomnolence result is on record as “lack of hypersomnolence”, the “effect on body temperature” value was “absence of hypothermia” and the “locomotor hyperactivity / stimulant activity” value is listed as “lack of locomotor stimulant activity”. Further, the duration of wakefulness entry in series [4] (listed as B) was “dose-related increase in wakefulness”. Moreover, the “BuChEI (%) 10 μM” value in series [5] (10 μM) was found to be 17%.
In the case of `C[C@H](Cc1ccccc1)NC(=O)Oc1cccc([C@H](C)N(C)C)c1` [Compound 9, S-riva-l-amphetamine], the “Induction of hypothermia MED” value in series [1] (s.c.) was found to be 10 mg/kg s.c. For the same compound, the “fall in body temperature” value in series [1] is “dose-related-related fall in body temperature”. In addition, the inhibition at 10 µM in [2] is 90%. In [6], the IC50 amounted to 3.1 µM and the inhibition at 10 µM amounted to 79%. Further, in [7] (8 mg/kg i.p.), the ChE inhibition amounted to 41% and the “Relative ChE Activity” value is 59%. In addition, in series [8], the “AChEI (%) 1 μM” value came to 35% and the “AChEI (%) 10 μM” value stood at 79%. In addition, the duration of wakefulness result in series [4] is “dose-related increase in wakefulness”. In [5] (1 μM), the “BuChEI (%) 1 μM” value is recorded as 27%. Moreover, the “BuChEI (%) 10 μM” value in series [5] (10 μM) is on record as 90%.
